This test deals with T1, human NaV1.6 (hNaV1.6) (Homo sapiens, UniProt Q9UQD0).
T1 construct: expressed in transfected cells; host or cells: HEK-293
T1 sequence (Q9UQD0 whole entry): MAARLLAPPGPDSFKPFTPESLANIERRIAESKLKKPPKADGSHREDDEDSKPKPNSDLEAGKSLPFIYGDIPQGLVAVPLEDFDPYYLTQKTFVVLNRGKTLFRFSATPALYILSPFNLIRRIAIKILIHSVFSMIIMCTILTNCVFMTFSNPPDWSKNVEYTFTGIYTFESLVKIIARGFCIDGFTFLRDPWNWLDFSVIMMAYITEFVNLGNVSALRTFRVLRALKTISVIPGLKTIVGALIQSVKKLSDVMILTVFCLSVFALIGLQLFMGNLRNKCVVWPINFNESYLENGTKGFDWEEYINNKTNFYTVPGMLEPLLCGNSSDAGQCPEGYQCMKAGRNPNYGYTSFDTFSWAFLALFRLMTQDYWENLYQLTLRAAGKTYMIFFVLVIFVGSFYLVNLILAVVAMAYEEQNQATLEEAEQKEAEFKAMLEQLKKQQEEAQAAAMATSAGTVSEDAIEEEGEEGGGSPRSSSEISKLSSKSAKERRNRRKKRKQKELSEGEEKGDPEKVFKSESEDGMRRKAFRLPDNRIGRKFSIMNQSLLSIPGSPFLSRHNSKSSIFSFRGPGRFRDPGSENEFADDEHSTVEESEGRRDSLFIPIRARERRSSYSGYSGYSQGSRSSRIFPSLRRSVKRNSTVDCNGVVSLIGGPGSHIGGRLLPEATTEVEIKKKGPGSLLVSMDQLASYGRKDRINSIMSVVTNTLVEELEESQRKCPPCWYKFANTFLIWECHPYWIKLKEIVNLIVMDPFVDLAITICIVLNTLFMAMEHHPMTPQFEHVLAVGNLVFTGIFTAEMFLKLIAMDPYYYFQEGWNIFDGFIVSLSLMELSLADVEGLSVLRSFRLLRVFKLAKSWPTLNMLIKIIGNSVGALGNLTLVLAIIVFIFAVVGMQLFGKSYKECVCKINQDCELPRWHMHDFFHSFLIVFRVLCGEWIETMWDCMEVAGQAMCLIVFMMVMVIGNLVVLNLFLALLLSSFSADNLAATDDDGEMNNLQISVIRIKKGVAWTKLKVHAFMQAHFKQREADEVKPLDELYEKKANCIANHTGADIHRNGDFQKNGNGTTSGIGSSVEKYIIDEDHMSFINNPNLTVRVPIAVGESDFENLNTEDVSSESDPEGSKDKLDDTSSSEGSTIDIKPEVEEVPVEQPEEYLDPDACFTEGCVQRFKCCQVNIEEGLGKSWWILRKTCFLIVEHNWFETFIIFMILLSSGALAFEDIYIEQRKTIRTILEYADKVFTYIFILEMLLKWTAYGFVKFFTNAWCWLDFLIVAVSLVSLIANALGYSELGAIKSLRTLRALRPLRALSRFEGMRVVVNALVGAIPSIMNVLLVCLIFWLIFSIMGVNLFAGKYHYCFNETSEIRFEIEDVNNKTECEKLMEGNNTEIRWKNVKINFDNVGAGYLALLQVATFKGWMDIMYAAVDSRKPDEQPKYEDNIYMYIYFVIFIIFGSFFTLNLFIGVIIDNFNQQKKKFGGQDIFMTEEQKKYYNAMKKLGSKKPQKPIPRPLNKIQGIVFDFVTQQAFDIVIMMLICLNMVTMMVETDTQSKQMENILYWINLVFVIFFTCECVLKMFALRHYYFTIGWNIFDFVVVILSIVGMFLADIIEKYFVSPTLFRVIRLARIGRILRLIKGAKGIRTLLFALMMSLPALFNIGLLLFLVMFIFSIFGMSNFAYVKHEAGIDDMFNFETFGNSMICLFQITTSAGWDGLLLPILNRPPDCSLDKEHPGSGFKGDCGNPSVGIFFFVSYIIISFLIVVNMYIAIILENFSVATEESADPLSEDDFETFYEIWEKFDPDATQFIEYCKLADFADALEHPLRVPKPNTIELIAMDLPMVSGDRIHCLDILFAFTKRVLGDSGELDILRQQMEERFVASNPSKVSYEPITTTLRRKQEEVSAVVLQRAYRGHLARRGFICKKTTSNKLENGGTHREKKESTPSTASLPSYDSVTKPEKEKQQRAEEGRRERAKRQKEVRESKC
In words: Modulation of late sodium current (INaL), PatchXpress high throughput electrophysiology. The test is classed as cell-based. The note with it: HEK293, HEK-293 cells expressing recombinant human NaV1.6, late current evoked by 300 nM ATX-II, read-out: NaV 1.6 Assay Data (percent inhibition of INaL at hNaV1.6). The procedure: Functional characterization of exemplary compounds to modulate INaL expressed by the NaV1.6 voltage-gated sodium channel was accomplished using the PatchXpress™ high throughput electrophysiology platform (Molecular Devices, Sunnyvale, CA). HEK-293 cells expressing recombinant, human NaV1.6 (hNaV1.6) were grown in DMEM/high-glucose Dulbecco's modified, 10% FBS, 2 mM sodium pyruvate, 10 mM HEPES and 400 μg/mL G418. Cells were grown to 50%-80% confluency prior to harvesting. Trypsinized cells were washed, allowed to recover for 1 hour and then resuspended in extracellular recording solution at a concentration of 1×10^6 cells/ml. The onboard liquid handling facility of the PatchXpress was used for dispensing cells and applying test compounds. NaV late currents were evoked by the application of 300 nM ATX-II. INaL was evoked by depolarizing pulses to 0 mV for 200 ms from a non-inactivating holding potential (e.g., −120 mV) at a frequency of 0.1 Hz. INaL amplitude and stability were determined by analyzing the mean current amplitude over the final 20 ms of thetest pulse. Following steady state block with exemplary compounds (e.g., as described herein), a Na+ free solution containing an impermeant cation (e.g., Choline or NDMG) was added to confirm the identify of the sodium current. Percent steady-state inhibition of INaL was calculated as: [(INaL_compound)/(INaL_control)]*100, where INaL_compound and INaL_control represent INaL recorded in the presence or absence of compound, respectively.
Take `COC(F)(F)c1nnc2cnc(-c3ccc(O[C@H](C)C(F)(F)F)cc3C)cn12` (single isomer, unassigned) [Compound 27]: the inhibition (commonly the relative decrease from the control value, in per cent) at 1 µM was in the range of 30 to 70%.
`COC(F)(F)c1nnc2cnc(-c3ccc(O[C@@H](C)C(F)(F)F)cc3C)cn12` (single isomer, unassigned) [Compound 28]: the inhibition at 1 µM is 30 to 70%.
`CCOC(F)(F)c1nnc2cnc(-c3ccc(O[C@H](C)C(F)(F)F)cc3C)cn12` (single isomer, unassigned) [Compound 29]: the inhibition at 1 µM was more than 70%.
Turning to `CCOC(F)(F)c1nnc2cnc(-c3ccc(O[C@@H](C)C(F)(F)F)cc3C)cn12` (single isomer, unassigned) [Compound 30], the inhibition at 1 µM lay within 30 to 70%.
As for `CO[C@H](C)c1cc(OC(F)(F)F)ccc1-c1cn2c(C(F)(F)OC)nnc2cn1` (single isomer, unassigned) [Compound 31], the figure is less than 30%; as for `CO[C@@H](C)c1cc(OC(F)(F)F)ccc1-c1cn2c(C(F)(F)OC)nnc2cn1` (single isomer, unassigned) [Compound 32], less than 30%; as for `COCc1cc(OC(F)(F)F)ccc1-c1cn2c(C(F)(F)OC)nnc2cn1` [Compound 1, 3-[difluoro(methoxy)methyl]-6-[2-(methoxymethyl)-4-(trifluoromethoxy)phenyl]-[1,2,4]triazolo[4,3-a]pyrazine], more than 70%.
Then `COC(F)(F)c1nnc2cnc(-c3ccc(OC(F)(F)F)cc3C)cn12` [Compound 2, 3-[difluoro(methoxy)methyl]-6-[2-methyl-4-(trifluoromethoxy)phenyl]-[1,2,4]triazolo[4,3-a]pyrazine], with more than 70%; and `COCc1nnc2cnc(-c3ccc(OC(F)(F)F)cc3C)cn12` [Compound 3, 3-(methoxymethyl)-6-[2-methyl-4-(trifluoromethoxy)phenyl]-[1,2,4]triazolo[4,3-a]pyrazine], with less than 30%; and `CCOC(F)(F)c1nnc2cnc(-c3ccc(OC(F)(F)F)cc3C)cn12` [Compound 4, 3-[ethoxy(difluoro)methyl]-6-[2-methyl-4-(trifluoromethoxy)phenyl]-[1,2,4]triazolo[4,3-a]pyrazine], with more than 70%.
With `CCOCc1nnc2cnc(-c3ccc(OC(F)(F)F)cc3C)cn12` [Compound 5, 3-(ethoxymethyl)-6-[2-methyl-4-(trifluoromethoxy)phenyl]-[1,2,4]triazolo[4,3-a]pyrazine], the inhibition at 1 µM lay in the range of 30 to 70%.
As for `Cc1cc(OC(F)(F)F)ccc1-c1cn2c(COCc3ccccc3)nnc2cn1` [Compound 6, 3-((benzyloxy)methyl)-6-(2-methyl-4-(trifluoromethoxy)phenyl)-[1,2,4]triazolo[4,3-a]pyrazine], the figure is more than 70%; as for `Cc1cc(OC(F)(F)F)ccc1-c1cn2c(COCC(C)C)nnc2cn1` [Compound 7, 3-(isobutoxymethyl)-6-(2-methyl-4-(trifluoromethoxy)phenyl)-[1,2,4]triazolo[4,3-a]pyrazine], 30 to 70%; as for `COCc1nnc2ccc(-c3ccc(OC(F)(F)F)cc3C)nn12` [Compound 8, 3-(methoxymethyl)-6-[2-methyl-4-(trifluoromethoxy)phenyl]-[1,2,4]triazolo[4,3-b]pyridazine], 30 to 70%.
Regarding `CCOC(F)(F)c1nnc2cnc(-c3ccc(OC(F)(F)F)c(C)c3)cn12` [Compound 9, 3-[ethoxy(difluoro)methyl]-6-[3-methyl-4-(trifluoromethoxy)phenyl]-[1,2,4]triazolo[4,3-a]pyrazine], the inhibition at 1 µM fell in the range of 30 to 70%.
`Cc1cc(OC(F)(F)F)ccc1-c1cn2c(C(F)(F)OC(C)C)nnc2cn1` [Compound 10, 3-(difluoro(isopropoxy)methyl)-6-(2-methyl-4-(trifluoromethoxy)phenyl)-[1,2,4]triazolo[4,3-a]pyrazine]: the inhibition at 1 µM fell in the range of 30 to 70%.
In the case of `COC(F)(F)c1nnc2cnc(-c3ccc(OC(F)(F)F)c(C)c3)cn12` [Compound 11, 3-(difluoro(methoxy)methyl)-6-(3-methyl-4-(trifluoromethoxy)phenyl)-[1,2,4]triazolo[4,3-a]pyrazine], the inhibition at 1 µM is less than 30%.
Regarding `Cc1cc(OC(F)(F)F)ccc1-c1cn2c(C(F)(F)OC3CC3)nnc2cn1` [Compound 12, 3-[cyclopropoxy(difluoro)methyl]-6-[2-methyl-4-(trifluoromethoxy)phenyl]-[1,2,4]triazolo[4,3-a]pyrazine], the inhibition at 1 µM was 30 to 70%.
Then `CCOCc1nnc2ccc(-c3ccc(OC(F)(F)F)cc3C)nn12` [Compound 13, 3-(ethoxymethyl)-6-[2-methyl-4-(trifluoromethoxy)phenyl]-[1,2,4]triazolo[4,3-b]pyridazine], with less than 30%; and `COC(F)(F)c1nnc2ccc(-c3ccc(OC(F)(F)F)cc3C)nn12` [Compound 14, 3-[difluoro(methoxy)methyl]-6-[2-methyl-4-(trifluoromethoxy)phenyl]-[1,2,4]triazolo[4,3-b]pyridazine], with 30 to 70%.
In the case of `CCOC(F)(F)c1nnc2ccc(-c3ccc(OC(F)(F)F)cc3C)nn12` [Compound 15, 3-[ethoxy(difluoro)methyl]-6-[2-methyl-4-(trifluoromethoxy)phenyl]-[1,2,4]triazolo[4,3-b]pyridazine], the inhibition at 1 µM is less than 30%.
`Cc1cc(OC(F)(F)F)ccc1-c1cn2c(COCC3CC3)nnc2cn1` [Compound 16, 3-(cyclopropylmethoxymethyl)-6-[2-methyl-4-(trifluoromethoxy)phenyl]-[1,2,4]triazolo[4,3-a]pyrazine]: the inhibition at 1 µM lay in the range of 30 to 70%.
Take `COCc1cc(OC(F)(F)F)ccc1-c1cn2c(COC)nnc2cn1` [Compound 17, 3-(methoxymethyl)-6-[2-(methoxymethyl)-4-(trifluoromethoxy)phenyl]-[1,2,4] triazolo[4,3-a]pyrazine]: the inhibition at 1 µM was less than 30%.
As for `Cc1cc(OC(F)(F)F)ccc1-c1cn2c(C(F)(F)OCC3CC3)nnc2cn1` [Compound 18, 3-[cyclopropylmethoxy(difluoro)methyl]-6-[2-methyl-4-(trifluoromethoxy)phenyl]-[1,2,4]triazolo[4,3-a]pyrazine], the figure is more than 70%.
In the case of `CCOC(F)(F)c1nnc2cnc(-c3ccc(OC(F)(F)F)cc3COC)cn12` [Compound 19, 3-[ethoxy (difluoro)methyl]-6-[2-(methoxymethyl)-4-(trifluoromethoxy)phenyl]-[1,2,4] triazolo [4,3-a] pyrazine], the inhibition at 1 µM was more than 70%.
Regarding `Cc1cc(OC(F)(F)F)ccc1-c1cn2c(COC3CC3)nnc2cn1` [Compound 20, 3-(cyclopropoxymethyl)-6-[2-methyl-4-(trifluoromethoxy)phenyl]-[1,2,4]triazolo[4,3-a]pyrazine], the inhibition at 1 µM was in the range of 30 to 70%.
Regarding `COC(F)(F)c1nnc2cnc(-c3ccc(OCC(F)(F)F)cc3C)cn12` [Compound 21, 3-(difluoro(methoxy)methyl)-6-(2-methyl-4-(2,2,2-trifluoroethoxy)phenyl)-[1,2,4]triazolo[4,3-a]pyrazine], the inhibition at 1 µM was 30 to 70%.
As to `COC(F)(F)c1nnc2cnc(-c3ccc(OC(C)C)cc3C)cn12` [Compound 22, 3-(difluoro(methoxy)methyl)-6-(4-isopropoxy-2-methylphenyl)-[1,2,4]triazolo [4,3-a]pyrazine], the inhibition at 1 µM is 30 to 70%.
With `CCOC(F)(F)c1nnc2cnc(-c3ccc(OC(C)C)cc3C)cn12` [Compound 23, 3-(ethoxydifluoromethyl)-6-(4-isopropoxy-2-methylphenyl)-[1,2,4]triazolo[4,3-a]pyrazine], the inhibition at 1 µM fell in the range of 30 to 70%.
In the case of `COC(F)(F)c1nnc2cnc(-c3ccc(OC(C)C)cc3)cn12` [Compound 24, 3-(difluoro(methoxy)methyl)-6-(4-isopropoxyphenyl)-[1,2,4]triazolo[4,3-a]pyrazine], the inhibition at 1 µM was more than 70%.
For the compound `CCOC(F)(F)c1nnc2cnc(-c3ccc(OC(C)C)cc3)cn12` [Compound 25, 3-(ethoxydifluoromethyl)-6-(4-isopropoxyphenyl)-[1,2,4]triazolo[4,3-a]pyrazine], the inhibition at 1 µM was more than 70%.
For `CCc1cc(OC(F)(F)F)ccc1-c1cn2c(C(F)(F)OC)nnc2cn1` [Compound 26, 3-[difluoro(methoxy)methyl]-6-[2-ethyl-4-(trifluoromethoxy)phenyl]-[1,2,4]triazolo[4,3-a]pyrazine], the inhibition at 1 µM was more than 70%.
For `COC(F)(F)c1nnc2cnc(-c3ccc(OC(F)(F)F)cc3C3CC3)cn12` [Compound 33, 6-[2-cyclopropyl-4-(trifluoromethoxy)phenyl]-3-[difluoro(methoxy)methyl]-[1,2,4]triazolo[4,3-a]pyrazine], the inhibition at 1 µM is more than 70%.
Consider `CCOC(F)(F)c1nnc2cnc(-c3ccc(OC(F)(F)F)cc3C3CC3)cn12` [Compound 34, 6-[2-cyclopropyl-4-(trifluoromethoxy)phenyl]-3-[ethoxy(difluoro)methyl]-[1,2,4]triazolo[4,3-a]pyrazine], for which the inhibition at 1 µM was more than 70%.

(Values after patent publication US12479844B2, “Ion channel modulators” (Praxis Precision Medicines, Inc., priority 2018, dated 2025).)
